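Values below derive from 48-hour exposures of cells grown in 96-well plates, with endpoints linearly interpolated between the two concentrations bracketing the appropriate inhibition level. GI50 marks 50% less growth. TGI is the concentration that stops growth completely.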
Experiments:
Assay in all cases: inhibition of tumour cell growth, NCI panel, 48 h
[1] = tested on: SF-295 CNS
[2] = tested on: HCT-116 colon
[3] = tested on: SK-MEL-5 melanoma
[4] = tested on: OVCAR-5 ovarian
[5] = tested on: SK-OV-3 ovarian
[6] = tested on: TK-10 renal
[7] = tested on: RXF 393 renal
[8] = tested on: CCRF-CEM leukemia
[9] = tested on: RPMI-8226 leukemia
[10] = tested on: NCI/ADR-RES ovarian

Compound | TGI [1] [µM] | TGI [2] [µM] | TGI [3] [µM] | TGI [4] [µM] | TGI [5] [µM] | TGI [6] [µM] | TGI [7] [µM] | TGI [8] [µM] | TGI [9] [µM] | GI50 [1] [µM] | GI50 [2] [µM] | GI50 [3] [µM] | GI50 [4] [µM] | GI50 [5] [µM] | GI50 [7] [µM] | GI50 [10] [µM] | TGI [10] [µM] | GI50 [8] [µM] | GI50 [9] [µM] | GI50 [6] [µM]
CCCCCCCCCCCCCC(=O)NCC(OCC)OCC | > 100 | > 100 | > 100 | > 100 | > 100 | > 100 | > 100 | > 100 | – | – | – | – | – | – | – | – | – | – | – | –
Clc1ccc2ns[s+]c2c1 | > 100 | > 100 | > 96.2 | > 100 | > 100 | > 61.1 | > 100 | > 81.9 | > 100 | – | – | – | – | – | – | – | – | – | – | –
CNCCNc1nc2ccccc2c2c(=O)c3cc(OC)ccc3sc12 | 3.36 | 2.62 | 3.09 | 3.27 | 3.97 | – | 2.7 | 3.46 | 3.41 | 1.82 | 1.34 | 1.71 | 1.8 | 1.82 | 1.39 | 1.68 | 3.48 | 1.76 | 1.62 | –
COc1ccc2ccccc2c1CN1CCOCCOCCN(Cc2c(OC)ccc3ccccc23)CCOCCOCC1 | > 100 | > 59 | > 53.6 | > 100 | > 100 | > 100 | > 100 | > 100 | 73.2 | – | – | – | – | – | – | – | – | – | – | –
CC1=C(/C=C/C(C)=C/C=C/C(C)=C/C=C/C=C(C)/C=C/C=C(C)/C=C/C2=C(C)C(=O)C(O)CC2(C)C)C(C)(C)CC(O)C1=O (stereo unspecified) | > 100 | > 100 | > 100 | > 100 | > 100 | > 100 | > 100 | > 100 | > 100 | – | – | – | – | – | – | – | – | – | – | –
CC(=O)c1cccc(-c2cccc(-c3ccn(CCN4CCOCC4)n3)c2)c1 | – | > 20 | > 20 | > 20 | > 20 | > 20 | > 20 | > 20 | > 20 | – | > 20 | 11.6 | > 20 | > 20 | > 20 | > 20 | > 20 | > 20 | > 20 | > 20
N#Cc1c(C[n+]2ccccc2)c2ccccc2oc1=O | > 100 | > 100 | > 100 | > 100 | > 100 | – | – | > 100 | > 100 | – | – | – | – | – | – | – | – | – | – | –
COc1cc2c3c(ncc2c(OC)c1OC)-c1cc2c(cc1C3)OCO2 | > 100 | 36.5 | > 100 | > 100 | 61.4 | 46.5 | – | – | > 100 | 29.8 | 22.1 | 54.1 | 58.5 | 21.6 | – | 36.9 | > 100 | – | 33.4 | 19.3
O=C(O)Cc1ccccc1CCc1ccccc1Cl | > 100 | > 100 | > 100 | > 100 | > 100 | > 100 | > 100 | > 100 | > 100 | – | – | – | – | – | – | – | – | – | – | –
COc1nc(C)cc2c(=O)n(-c3ccccc3)n(CC(O)CN3CCN(c4ccc(Cl)cc4)CC3)c(=O)c12 (stereo unspecified) | > 50 | > 50 | > 50 | > 50 | > 50 | > 50 | – | > 50 | > 50 | 36.4 | > 50 | 32.6 | > 50 | 22.3 | – | > 50 | > 50 | > 50 | > 50 | > 50
CCOC(=O)C1=C(Nc2ccc(Cl)c(Cl)c2)OC/C1=N\NC(=O)Cc1ccccc1 | > 100 | > 100 | > 100 | > 100 | > 100 | > 100 | > 100 | > 100 | > 100 | – | – | – | – | – | – | – | – | – | – | –
COC(=O)[C@]1(C)C(OC)=CC(=O)C2C1[C@H]1CCC[C@@H]21 (stereo partly specified) | > 100 | > 100 | > 100 | > 100 | > 100 | > 100 | > 100 | > 100 | > 100 | – | – | – | – | – | – | – | – | – | – | –
COc1cc(/C=C/c2ccc(OC)c(OC)c2OC)cc(OC)c1OC | 55.7 | 27.9 | 28.5 | 74.4 | 57.6 | > 82.9 | 46.3 | 85.8 | 37.1 | – | – | – | – | – | – | – | – | – | – | –
COc1cc(C2c3cc4c(cc3[C@@H](OCCN(C)C)C3COC(=O)[C@H]23)OCO4)cc(OC)c1O (stereo partly specified) | 0.998 | 7.33 | 1.42 | 4.26 | 1.6 | 5.49 | 1.97 | – | – | – | – | – | – | – | – | – | – | – | – | –
O=C1CCN2CCC(=O)c3c2c(cc2ccccc32)N1 | > 100 | > 100 | > 100 | > 100 | > 100 | > 100 | > 100 | > 100 | > 100 | – | – | – | – | – | – | – | – | – | – | –
CCCCCCNC(=O)n1cc(F)c(=O)[nH]c1=O | – | 15.3 | 27.1 | 37.2 | 91.1 | 22.7 | 20.3 | 26.7 | 32.2 | – | 1.99 | 3.54 | 12.8 | 11.1 | 6.22 | 12 | 92.5 | 3.2 | 2.38 | 4.71
C/C=C(/C)c1cnc(CC(C)C)c(=O)[nH]1 | > 100 | > 100 | > 100 | > 100 | > 100 | > 100 | > 100 | > 100 | > 100 | – | – | – | – | – | – | – | – | – | – | –
Clc1ccc2c(c1)[nH]c1c2nc2sccn21 | > 100 | > 100 | > 100 | > 100 | > 100 | > 100 | > 100 | > 100 | > 100 | – | – | – | – | – | – | – | – | – | – | –
COc1c(Sc2ccccc2)cc(Sc2ccccc2)c2cccnc12 | 78.6 | > 100 | 30.5 | > 100 | > 100 | 81.3 | 51.5 | 54.5 | 50 | – | – | – | – | – | – | – | – | – | – | –
CS(=O)(=O)NNS(=O)(=O)c1ccc(Cl)cc1 | > 100 | > 100 | > 100 | – | – | > 100 | > 100 | > 100 | > 100 | – | – | – | – | – | – | – | – | – | – | –
